The NIST ThermoML archive (doi:10.1021/acs.jced.8b00132)
“And” between values parts separate entries of the source, which are not always exact repeats. Equal values may be shown once.

O=C(C(F)(F)C(F)(F)F)C(F)(C(F)(F)F)C(F)(F)F [dodecafluoro-2-methylpentan-3-one]
Conditions | thermal conductivity
402.37 K, 306 kPa, Gas, hot wire | 0.0201 W/m/K
402.38 K, 27 kPa, Gas, hot wire | 0.01858 W/m/K
402.38 K, 306 kPa, Gas, hot wire | 0.02016 W/m/K
402.44 K, 159 kPa, Gas, hot wire | 0.01917 W/m/K and 0.01915 W/m/K
402.45 K, 445 kPa, Gas, hot wire | 0.02064 W/m/K
402.47 K, 444 kPa, Gas, hot wire | 0.02039 W/m/K
402.49 K, 306 kPa, Gas, hot wire | 0.02022 W/m/K and 0.02027 W/m/K
402.5 K, 27 kPa, Gas, hot wire | 0.01866 W/m/K and 0.01864 W/m/K
402.57 K, 160 kPa, Gas, hot wire | 0.01916 W/m/K
402.57 K, 161 kPa, Gas, hot wire | 0.0192 W/m/K
402.57 K, 444 kPa, Gas, hot wire | 0.02075 W/m/K
402.59 K, 443 kPa, Gas, hot wire | 0.02053 W/m/K
402.62 K, 305 kPa, Gas, hot wire | 0.02031 W/m/K and 0.02029 W/m/K
402.63 K, 27 kPa, Gas, hot wire | 0.01867 W/m/K
402.64 K, 27 kPa, Gas, hot wire | 0.01862 W/m/K
402.68 K, 835 kPa, Gas, transient hot wire | 0.02013 W/m/K
402.69 K, 441 kPa, Gas, hot wire | 0.02089 W/m/K
402.69 K, 442 kPa, Gas, hot wire | 0.02089 W/m/K
402.69 K, 835 kPa, Gas, transient hot wire | 0.02007 W/m/K
402.71 K, 162 kPa, Gas, hot wire | 0.01917 W/m/K
402.71 K, 163 kPa, Gas, hot wire | 0.01926 W/m/K
402.74 K, 305 kPa, Gas, hot wire | 0.02049 W/m/K
402.74 K, 747 kPa, Gas, transient hot wire | 0.01986 W/m/K
402.74 K, 748 kPa, Gas, transient hot wire | 0.01986 W/m/K
402.75 K, 305 kPa, Gas, hot wire | 0.02035 W/m/K
402.78 K, 27 kPa, Gas, hot wire | 0.01867 W/m/K and 0.01858 W/m/K
402.81 K, 608 kPa, Gas, transient hot wire | 0.01959 W/m/K
402.81 K, 609 kPa, Gas, transient hot wire | 0.01955 W/m/K
402.85 K, 164 kPa, Gas, hot wire | 0.01925 W/m/K and 0.01927 W/m/K
402.87 K, 447 kPa, Gas, transient hot wire | 0.01955 W/m/K
402.87 K, 448 kPa, Gas, transient hot wire | 0.01962 W/m/K
402.87 K, 836 kPa, Gas, transient hot wire | 0.02025 W/m/K
402.88 K, 836 kPa, Gas, transient hot wire | 0.0203 W/m/K
402.91 K, 746 kPa, Gas, transient hot wire | 0.01994 W/m/K
402.92 K, 307 kPa, Gas, transient hot wire | 0.01967 W/m/K
402.92 K, 746 kPa, Gas, transient hot wire | 0.01998 W/m/K
402.93 K, 27 kPa, Gas, hot wire | 0.01857 W/m/K and 0.01866 W/m/K
403 K, 607 kPa, Gas, transient hot wire | 0.01962 W/m/K and 0.01975 W/m/K
403.05 K, 836 kPa, Gas, transient hot wire | 0.02051 W/m/K
403.06 K, 836 kPa, Gas, transient hot wire | 0.02049 W/m/K
403.07 K, 447 kPa, Gas, transient hot wire | 0.01962 W/m/K
403.08 K, 446 kPa, Gas, transient hot wire | 0.01959 W/m/K
403.1 K, 744 kPa, Gas, transient hot wire | 0.02004 W/m/K
403.1 K, 745 kPa, Gas, transient hot wire | 0.02014 W/m/K
403.12 K, 306 kPa, Gas, transient hot wire | 0.01974 W/m/K
403.12 K, 307 kPa, Gas, transient hot wire | 0.01974 W/m/K
403.2 K, 605 kPa, Gas, transient hot wire | 0.01971 W/m/K
403.21 K, 606 kPa, Gas, transient hot wire | 0.01981 W/m/K
403.25 K, 836 kPa, Gas, transient hot wire | 0.02071 W/m/K
403.25 K, 837 kPa, Gas, transient hot wire | 0.02072 W/m/K
403.28 K, 445 kPa, Gas, transient hot wire | 0.01961 W/m/K
403.3 K, 445 kPa, Gas, transient hot wire | 0.01958 W/m/K
403.33 K, 744 kPa, Gas, transient hot wire | 0.02022 W/m/K
403.34 K, 306 kPa, Gas, transient hot wire | 0.01976 W/m/K
403.34 K, 743 kPa, Gas, transient hot wire | 0.02024 W/m/K
403.35 K, 306 kPa, Gas, transient hot wire | 0.01972 W/m/K
403.41 K, 605 kPa, Gas, transient hot wire | 0.01984 W/m/K
403.42 K, 604 kPa, Gas, transient hot wire | 0.01984 W/m/K
403.51 K, 444 kPa, Gas, transient hot wire | 0.01967 W/m/K
403.53 K, 742 kPa, Gas, transient hot wire | 0.02037 W/m/K and 0.02041 W/m/K
403.54 K, 443 kPa, Gas, transient hot wire | 0.01965 W/m/K
403.57 K, 305 kPa, Gas, transient hot wire | 0.01974 W/m/K and 0.01978 W/m/K
403.63 K, 603 kPa, Gas, transient hot wire | 0.01991 W/m/K
403.64 K, 602 kPa, Gas, transient hot wire | 0.01991 W/m/K
403.75 K, 442 kPa, Gas, transient hot wire | 0.01972 W/m/K
403.76 K, 442 kPa, Gas, transient hot wire | 0.01971 W/m/K
403.81 K, 305 kPa, Gas, transient hot wire | 0.01987 W/m/K and 0.01988 W/m/K
416.35 K, 1171 kPa, Liquid, transient hot wire | 0.03902 W/m/K and 0.03885 W/m/K
416.51 K, 1171 kPa, Liquid, transient hot wire | 0.03892 W/m/K and 0.03904 W/m/K
416.67 K, 1170 kPa, Liquid, transient hot wire | 0.03901 W/m/K
416.68 K, 1170 kPa, Liquid, transient hot wire | 0.0389 W/m/K
416.69 K, 596 kPa, Gas, hot wire | 0.0223 W/m/K
416.7 K, 595 kPa, Gas, hot wire | 0.02228 W/m/K
416.78 K, 2205 kPa, Liquid, transient hot wire | 0.04062 W/m/K
416.79 K, 2206 kPa, Liquid, transient hot wire | 0.04049 W/m/K
416.8 K, 24840 kPa, Liquid, transient hot wire | 0.05568 W/m/K
416.81 K, 24844 kPa, Liquid, transient hot wire | 0.05562 W/m/K
416.81 K, 50957 kPa, Liquid, transient hot wire | 0.06585 W/m/K
416.82 K, 50950 kPa, Liquid, transient hot wire | 0.06577 W/m/K
416.86 K, 1170 kPa, Liquid, transient hot wire | 0.03904 W/m/K
416.87 K, 1131 kPa, Gas, transient hot wire | 0.02258 W/m/K
416.87 K, 1170 kPa, Liquid, transient hot wire | 0.03905 W/m/K
416.88 K, 16295 kPa, Liquid, transient hot wire | 0.0514 W/m/K
416.89 K, 590 kPa, Gas, hot wire | 0.02234 W/m/K
